One data set in a line: physchem.
Settings: not given
Consider `CCCCCO` [1-pentanol], for which the log partition coefficient (logP) was determined as 1.4.

The same data set, now with this note: log P value.
`CC(C)(O)CCO` [3-methyl-1,3-butanediol]: the logP amounted to 0.16.
The compound `CCCOC(C)COC(C)CO` (centres unmarked) [Dipropylene glycol monopropyl ether] registered a logP of 0.87.
Same read-out and setting: the figure for `CCOCCOCCOCC` [diethylene glycol diethyl ether] is 0.39.
On the same count and under the same terms, then `CCCCOCCOCCO` [diethylene glycol monobutyl ether], with 0.56.
`CCCCCCOCCOCCO` [diethylene glycol monohexyl ether]: the logP is 1.7.
On the same count and under the same terms, then `CCCCCCOCCO` [ethylene glycol monohexyl ether], with 1.7; and `CCCCOCC(C)O` (centres unmarked) [propylene glycol monobutyl ether], with 1.15.
Still for that read-out and setting: then `CCOCC(C)O` (centres unmarked) [propylene glycol monoethyl ether], with 0.3; and `CCCOCC(C)O` (centres unmarked) [propylene glycol monopropyl ether], with 0.62.
On the same count and under the same terms, the figure for `CCCCOC(C)COC(C)COC(C)CO` (centres unmarked) [tripropylene glycol monobutyl ether] is 1.34.

The data set is the same for the next values; noted with them: logP value of organic compound.
The compound `CCCC(O)C(CC)CO` (centres unmarked) [2-Ethyl-1,3-hexane diol] had a logP of 1.6.
The same measure, in the same setting: the figure for `CCCOC(C)COC(C)CO` (centres unmarked) [Dipropylene glycol monopropyl ether] is 0.6; for `CCOCCOCCOCCO` [Triethylene glycol monoethyl ether] it is -2.75.

(Values after patent publication US9499711B2, “Treatment liquid and recording method” (Seiko Epson Corporation, priority 2014, dated 2016).)
